The values below come from paper PMC4819222, “CD300c is uniquely expressed on CD56^bright Natural Killer Cells and differs from CD300a upon ligand recognition” (Scientific Reports, 2016).

One assay has as its target T1, CD300c-Ig (Homo sapiens, UniProt Q08708).
T1 construct: extracellular domain fused to Fc fragment of human IgG2 (Fc as tag)
T1 sequence (Q08708 21-183 limits assumed): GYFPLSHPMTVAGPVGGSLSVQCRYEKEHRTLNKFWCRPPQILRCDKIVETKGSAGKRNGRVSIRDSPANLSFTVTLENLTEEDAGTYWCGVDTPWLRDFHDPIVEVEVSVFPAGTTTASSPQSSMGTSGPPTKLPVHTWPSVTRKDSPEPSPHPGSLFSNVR
As to the kind of experiment: ELISA on plates coated with pure lipid; SPR on L1-chip liposomes (Biacore T200). In kind it is binding. The following applies: immobilised lipid; Fc fusion protein as analyte.

Another assay concerns the target T2, CD300a-Ig (Homo sapiens, UniProt Q9UGN4).
T2 construct: Ig (Fc) fusion protein, Fc as tag
T2 sequence (Q9UGN4 18-180 limits assumed): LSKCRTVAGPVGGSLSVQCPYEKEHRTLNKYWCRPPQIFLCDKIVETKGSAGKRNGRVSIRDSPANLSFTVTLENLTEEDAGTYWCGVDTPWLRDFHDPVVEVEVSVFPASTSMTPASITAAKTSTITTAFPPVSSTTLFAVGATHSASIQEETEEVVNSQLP
Described as above. The assay is classed as binding. The following applies: immobilised lipid; Fc fusion protein as analyte.

In the case of `CCCCCCCC/C=C\CCCCCCCC(=O)O[C@H](COC(=O)CCCCCCCCCCCCCCC)COP(=O)(O)OCCN` [PE, 1-palmitoyl-2-oleoyl (PO) phosphatidylethanolamine (POPE)], the “ELISA on plates coated with pure lipid; SPR on L1-chip liposomes (Biacore T200)” value at CD300c-Ig was “CD300c-Ig binds to both PS and PE at the same level”; at CD300a-Ig, “CD300a-Ig predominantly binds to PE”.
